The record followed here is PubChem BioAssay (NCI).

Test systems include SF-268 CNS; T-47D breast; BT-549 breast; SF-539 CNS; SR leukemia; HT29 colon; UO-31 renal; SK-MEL-28 melanoma; DU-145 prostate; UACC-62 melanoma.
Experiment in all cases: NCI tumour cell line growth inhibition, 48 h

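Compound exposure: 48 hours, 5 concentrations, 96-well plates. GI50 is the concentration that inhibits growth by half. The concentration for full growth arrest is given as TGI.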 Bounds are passed on as bounds.

With `O=C(Nc1ccc(I)cc1F)c1cc(Br)ccc1O`, the GI50 in the assay on SF-268 CNS was 0.498 µM; in the assay with T-47D breast, 0.353 µM; in the assay on BT-549 breast, 0.37 µM; in the assay on SF-539 CNS, 583 nM; in the assay on SR leukemia, 564 nM; in the assay with HT29 colon, 3.29 µM. The GI50 with UO-31 renal is 0.346 µM; in the assay on SK-MEL-28 melanoma it was 0.393 µM; in the assay on DU-145 prostate, 0.865 µM; in the assay with UACC-62 melanoma it was 250 nM. For the same molecule, the TGI in the assay on SF-268 CNS was 8.07 µM; in the assay on T-47D breast, 2.54 µM; in the assay with BT-549 breast it was 1.76 µM; in the assay with SF-539 CNS it was 3.74 µM; in the assay with SR leukemia, greater than 100 µM; in the assay on HT29 colon it was greater than 35.1 µM. In addition, the TGI in the assay with UO-31 renal was 2.24 µM; in the assay on SK-MEL-28 melanoma, 2.04 µM; in the assay with DU-145 prostate, greater than 67.8 µM; with UACC-62 melanoma, 0.812 µM.

For the molecule `CCCN(CCC)c1ccc(/C=N/NC(=O)c2cccnc2)c(C)c1`, the GI50 is 13.9 µM with SF-268 CNS; 6.35 µM in the assay on T-47D breast; 15.2 µM with BT-549 breast; 13800 nM in the assay with SF-539 CNS; 8150 nM in the assay with SR leukemia; 8.54 µM with HT29 colon. Also, the GI50 with UO-31 renal was 15.6 µM; in the assay on SK-MEL-28 melanoma, 16.4 µM; with DU-145 prostate, 16.4 µM; with UACC-62 melanoma it was 11400 nM. The TGI with SF-268 CNS turned out to be 31.2 µM; with T-47D breast, 27.6 µM; in the assay with BT-549 breast, 29.3 µM; in the assay on SF-539 CNS, 29.3 µM; in the assay on SR leukemia, 41.7 µM; with HT29 colon it was 25.2 µM. The TGI with UO-31 renal came out at 38.1 µM; in the assay with SK-MEL-28 melanoma, 43.1 µM; in the assay on DU-145 prostate it was 43.9 µM; with UACC-62 melanoma, 24.6 µM.

For `COc1cc(CSc2nc3ccc(Cl)cc3c(=O)n2Cc2ccccc2)cc(OC)c1OC`, the GI50 is 7.33 µM in the assay with SF-268 CNS; 3.92 µM with T-47D breast; 6.19 µM with BT-549 breast; 2570 nM with SF-539 CNS; 590 nM in the assay with SR leukemia; 3.32 µM in the assay with HT29 colon. Further, the GI50 is 4.4 µM in the assay with UO-31 renal, 3.05 µM in the assay with SK-MEL-28 melanoma, 4.46 µM in the assay with DU-145 prostate and 2340 nM with UACC-62 melanoma. For the same molecule, the TGI in the assay on SF-268 CNS was greater than 100 µM; in the assay with T-47D breast it was greater than 100 µM; in the assay with BT-549 breast, 90.6 µM; in the assay with SF-539 CNS, 9.34 µM; in the assay with SR leukemia, 27.6 µM; in the assay on HT29 colon, greater than 100 µM. The TGI is greater than 100 µM in the assay with UO-31 renal, 43.9 µM in the assay on SK-MEL-28 melanoma, greater than 100 µM with DU-145 prostate and 25.2 µM in the assay with UACC-62 melanoma.

Consider `COc1ccc(C2c3ccc4ccccc4c3Oc3ncn(CCCn4ccnc4)c(=N)c32)cc1OC` (stereo not given), for which the GI50 is 3.52 µM with SF-268 CNS; 2.39 µM with T-47D breast; 3.41 µM in the assay on BT-549 breast; 1740 nM with SF-539 CNS; 1570 nM in the assay on SR leukemia; 2.2 µM with HT29 colon. Moreover, the GI50 in the assay with UO-31 renal was 3.75 µM; in the assay on SK-MEL-28 melanoma it was 1.79 µM; in the assay on DU-145 prostate, 5.49 µM; in the assay on UACC-62 melanoma, 1900 nM. Further, the TGI with SF-268 CNS was found to be 13.8 µM; with T-47D breast, 6.25 µM; in the assay on BT-549 breast it was 13.5 µM; in the assay on SF-539 CNS it was 3.28 µM; in the assay with SR leukemia, 4.15 µM; in the assay with HT29 colon, 5.6 µM. For the same molecule, the TGI amounted to 16.1 µM with UO-31 renal, 3.5 µM in the assay on SK-MEL-28 melanoma, 18.2 µM with DU-145 prostate and 3.74 µM in the assay with UACC-62 melanoma.

Regarding `COc1cc(OC)c(C(=O)/C=C/c2ccc(C#N)cc2)c(OC)c1`, the GI50 in the assay on SF-268 CNS is 1.97 µM; with T-47D breast, 1.21 µM; with BT-549 breast, 1.3 µM; in the assay on SF-539 CNS, 1280 nM; with SR leukemia, 813 nM; with HT29 colon it was 1.88 µM. The GI50 in the assay with UO-31 renal was 1.29 µM; with SK-MEL-28 melanoma, 1.92 µM; with DU-145 prostate it was 1.54 µM; in the assay on UACC-62 melanoma, 1450 nM. In addition, the TGI with SF-268 CNS was 46.5 µM; in the assay with T-47D breast it was 7.81 µM; in the assay with BT-549 breast it was 5.11 µM; in the assay on SF-539 CNS it was 3.85 µM; in the assay with SR leukemia, greater than 50 µM; in the assay with HT29 colon, 8.28 µM. In addition, the TGI is 6.26 µM with UO-31 renal, 7.61 µM with SK-MEL-28 melanoma, 6.27 µM in the assay with DU-145 prostate and 5.78 µM in the assay on UACC-62 melanoma.

Take `O=C1CN=C(c2ccc[nH]2)c2cc(Cl)ccc2N1`: the GI50 is greater than 100 µM in the assay on SF-268 CNS; greater than 100 µM in the assay with T-47D breast; 53.3 µM in the assay on BT-549 breast; greater than 100000 nM with SF-539 CNS; greater than 100000 nM with SR leukemia; 38.9 µM in the assay on HT29 colon. Moreover, the GI50 in the assay with UO-31 renal was greater than 100 µM; with SK-MEL-28 melanoma, greater than 100 µM; with DU-145 prostate, greater than 100 µM; in the assay with UACC-62 melanoma, 95000 nM. The TGI in the assay with SF-268 CNS, in the assay on T-47D breast, in the assay with BT-549 breast, in the assay with SF-539 CNS, with SR leukemia and with HT29 colon was greater than 100 µM throughout. Besides, the TGI in the assay on UO-31 renal, in the assay with SK-MEL-28 melanoma, with DU-145 prostate and with UACC-62 melanoma was greater than 100 µM in each case.

As for `CC1(C)C(=O)/C=C\C(=O)C(C)(C)C2=CC=C(O2)C(C)(C)C(=O)C(Br)C(Br)C(=O)C(C)(C)C2=CC=C1O2` (stereo not given), the TGI in the assay with SF-268 CNS was greater than 100 µM; in the assay with T-47D breast, greater than 100 µM; in the assay on BT-549 breast it was 76.5 µM; in the assay on SF-539 CNS it was greater than 100 µM; in the assay with SR leukemia it was 5.62 µM; with HT29 colon, greater than 100 µM. The TGI in the assay on UO-31 renal is greater than 100 µM; in the assay on SK-MEL-28 melanoma, greater than 100 µM; in the assay on DU-145 prostate, greater than 100 µM; with UACC-62 melanoma, 49.3 µM.

`COc1cccc(/C=N\NC(=O)c2ccncc2)c1O`: the GI50 was 3.47 µM with SF-268 CNS; 3.46 µM with T-47D breast; 4.48 µM in the assay on BT-549 breast; 6070 nM with SF-539 CNS; 2980 nM with SR leukemia; 21.5 µM in the assay on HT29 colon. Moreover, the GI50 is 2.36 µM in the assay on UO-31 renal, 19.1 µM in the assay on SK-MEL-28 melanoma, 5.13 µM in the assay with DU-145 prostate and 3620 nM in the assay with UACC-62 melanoma. The TGI with SF-268 CNS is greater than 100 µM; in the assay with T-47D breast, greater than 100 µM; in the assay on BT-549 breast, 68.3 µM; in the assay on SF-539 CNS it was greater than 100 µM; in the assay on SR leukemia, greater than 100 µM; with HT29 colon, greater than 100 µM. Also, the TGI in the assay with UO-31 renal is 56.8 µM; in the assay with SK-MEL-28 melanoma, greater than 100 µM; with DU-145 prostate, greater than 100 µM; in the assay with UACC-62 melanoma, 34.6 µM.
